The test system of one assay is neoplastic cells. Particulars: cell sample incubated 6-24 hours with 200 μg/ml TCPP; cited from earlier work.
Assay [1] concerns cells of lung sputum sample. The experiment in a line: Fluorescence spectral imaging (LCTF/CCD) of TCPP-labeled lung sputum cells on slides. The format is cell-based, human. The note with it: fixed sputum cells on slide, images separated by spectral emission (530 nm vs 660 nm layers). An excerpt: According to one embodiment of the present invention, a biological specimen, for example a sputum sample is processed using a thin prep protocol onto a microscope slide. […] Minimizing corrosive effects to the plasma membrane is important as the TCPP is shown to localize on the plasma membrane of the cell surface. The cells are processed to separate the cells from the mucous and cell fragments. Each prepared slide contains a monolayer of the sputum cells. After preparing the slides, the labeling reagent TCPP is dissolved in concentrations between 0.05 ug/ml-4.0 ug/ml in an aqueous alcohol containing between 50% and 90% isopropanol alcohol solution. […]
To gather our data an image capture system having a detector capable of quantifying emission of photons from a TCPP labeled cell across light spectrum from about 350 nm to about 800 nm was employed according to one embodiment of the present invention. […]
Referring now to FIG. 1 is a cell labeled or stained with TCPP according to one embodiment of the present invention. […] The autofluorescence of the cells is detected in the green channel 560 +/−30nm and the fluorescence of the TCPP labeling compound on the cell is detected in the red channel 660 +/−30 nm. […] By tuning the LCTF to different frequencies during imaging, the system permits information to be gathered and analyzed over a broad spectrum. […]

“Also recorded” adds a separate entry of the source.

`O=C(O)c1ccc(-c2c3nc(c(-c4ccc(C(=O)O)cc4)c4ccc([nH]4)c(-c4ccc(C(=O)O)cc4)c4nc(c(-c5ccc(C(=O)O)cc5)c5ccc2[nH]5)C=C4)C=C3)cc1` [TCPP, 5, 10, 15, 20 tetrakis (4-carboxyphenyl) porphine]: the “location of TCPP in cells after incubation” value with neoplastic cells is “entered cells and bound to the perinuclear membrane and mitochondria of neoplastic cells”. Moreover, the “location of TCPP in cell structures” value in assay [1] was “emitted exclusively from the plasma membrane; also recorded: adheres only to surface features and does not migrate into internal cell structures”.

The values above are taken from patent US20150160197A1, “System and Method for Analyzing Samples Labeled with 5, 10, 15, 20 Tetrakis (4-Carboxyphenyl) Porphine (TCPP)” (bioAffinity Technologies, Inc., priority 2009, published 2015).
